Data on two molecules can be found in patent publication US9199997B2, “Purinone derivative hydrochloride” (ONO PHARMACEUTICAL CO., LTD., priority 2011, dated 2015).

≈ marks a conversion by molar mass, not a printed value.

Data set [1] can be described thus: Measurement of solubility (HPLC). In kind it is physicochemical. The conditions noted are these: thermodynamic from solid; for solubility at 30 min: after 30 min; for solubility at 24 h: after 24 h. On the procedure:
<HPLC Measurement Conditions>
Device: HPLC 1100series, Agilent
Column: YMC-Pack ODS-AM AM-302 (4.6 mm ID×150 mm long)
Column temperature: 25° C.
Mobile phase: 20 mM potassium phosphate monobasic (pH 3.0)/acetonitrile (60:40, isocratic)
Sample rack temperature: 25° C.
Sample injection volume: 10 μL

A short description of data set [2]: Blood kinetics in dogs. It counts as in vivo. The conditions noted are these: male, beagle, dog, plasma; solubilized solution (WellSolve), oral gavage 1 mg/kg vs intravenous 1 mg/kg, fasted dogs; read-out: bioavailability (BA). The protocol:
The kinetic profiles of compound A and the salt thereof (the compound prepared in Example 9) in blood were evaluated in male beagle dogs under fasting conditions. […] For the intravenous and oral solution administrations, a solubilized solution of Compound A dissolved in WellSolve (Celeste Inc.) heated to 60° C. was used. Using the solubilized solutions, doses of 1 mg/1 mL/kg were rapidly administered intravenously with a syringe via a forelimb cephalic vein, and doses of 1 mg/5 mL/kg were administered by gavage using a catheter. […] The concentration of Compound A in the plasma was measured by LC/MS/MS (UPLC/Xevo, Waters). The area under the curve (AUC, ng·h/mL), maximum concentration (Cmax, μg/mL) and clearance (CL, mL/hr/kg) were calculated from the plasma concentration. The bioavailability (BA) of Compound A was calculated from the AUC of the oral dose and the AUC of the intravenous dose.
Moreover, for the oral suspension administration a liquid was prepared by finely pulverizing Compound A and suspending the particles in an aqueous solution of 0.5% methylcellulose, and then administering doses of 3 and 10 mg/kg in the same manner as the forced oral administration by gavage described above. […] The BA values for each administration method and at each concentration were calculated as relative BA by assigning the BA of Compound A in the solubilized solution a value of 100%.

Where [3] appears, read: FaSSIF (artificial intestinal fluid), FaSSIF (pH 6.5).
[4] abbreviates: FeSSIF (artificial intestinal fluid), FeSSIF (pH 6.5).
The mark [5] stands for this setting: Japanese Pharmacopoeia dissolution test I liquid, simulated gastric fluid, JP dissolution test I liquid (pH 1.2).
Setting [6] is: Japanese Pharmacopoeia dissolution test II liquid, aqueous buffer, JP dissolution test II liquid (pH 6.8).
Setting [7] is: diluted McIlvaine buffer, aqueous buffer, Dilute McIlvaine buffer (pH 4.0).
The mark [8] stands for this setting: diluted McIlvaine buffer, aqueous buffer, Dilute McIlvaine buffer (pH 7.4).

Regarding `CC#CC(=O)N1CC[C@@H](n2c(=O)n(-c3ccc(Oc4ccccc4)cc3)c3c(N)ncnc32)C1.Cl` [Example 9, 6-amino-9-[(3R)-1-(2-butynoyl)-3-pyrrolidinyl]-7-(4-phenoxyphenyl)-7,9-dihydro-8H-purin-8-one hydrochloride], the solubility at 30 min was 0.145 mg/mL in data set [1] (setting [3]); 0.356 mg/mL in data set [1] (setting [4]); 1.22 mg/mL in data set [1] (setting [5]); 0.112 mg/mL in data set [1] (setting [6]); 0.125 mg/mL in data set [1] (setting [7]); 0.103 mg/mL in data set [1] (setting [8]). The solubility at 30 min in data set [1] (Purified water) came out at 0.13 mg/mL. In addition, the solubility at 24 h in data set [1] (setting [3]) is 0.118 mg/mL; in data set [1] (setting [4]) it was 0.301 mg/mL; in data set [1] (setting [5]), 1.21 mg/mL; in data set [1] (setting [6]) it was 0.111 mg/mL; in data set [1] (setting [7]), 0.117 mg/mL; in data set [1] (setting [8]), 0.106 mg/mL. Moreover, the solubility at 24 h in data set [1] (Purified water) was found to be 0.144 mg/mL.

Consider `CC#CC(=O)N1CC[C@@H](n2c(=O)n(-c3ccc(Oc4ccccc4)cc3)c3c(N)ncnc32)C1` [Compound A, 6-amino-9-[(3R)-1-(2-butynoyl)-3-pyrrolidinyl]-7-(4-phenoxyphenyl)-7,9-dihydro-8H-purin-8-one], for which the solubility at 30 min in data set [1] (setting [3]) was 0.035 mg/mL (≈ 77 µM); in data set [1] (setting [4]), 0.067 mg/mL (≈ 147 µM); in data set [1] (setting [5]) it was 0.55 mg/mL (≈ 1210 µM); in data set [1] (setting [6]), 0.031 mg/mL (≈ 68.2 µM); in data set [1] (setting [7]), 0.03 mg/mL (≈ 66 µM); in data set [1] (setting [8]), 0.029 mg/mL (≈ 63.8 µM). In data set [1] (Purified water), this molecule displayed a solubility at 30 min of 0.032 mg/mL (≈ 70.4 µM). Moreover, the solubility at 24 h in data set [1] (setting [3]) was 0.036 mg/mL (≈ 79.2 µM); in data set [1] (setting [4]), 0.084 mg/mL (≈ 185 µM); in data set [1] (setting [5]), 0.717 mg/mL (≈ 1580 µM); in data set [1] (setting [6]), 0.032 mg/mL (≈ 70.4 µM); in data set [1] (setting [7]), 0.034 mg/mL (≈ 74.8 µM); in data set [1] (setting [8]) it was 0.029 mg/mL (≈ 63.8 µM). The molecule further displayed a solubility at 24 h in data set [1] (Purified water) of 0.034 mg/mL (≈ 74.8 µM). Besides, the bioavailability in data set [2] turned out to be 115%.

For orientation: solubility means the concentration that dissolves in the medium under given conditions.
